Measured values taken from PMC12621189, “Optimization of Selective and CNS Penetrant Alkyne-Based TREK Inhibitors: The Discovery and Characterization of ONO-9517601 (VU6022856) and ONO-7927846 (VU6024391)” (Journal of Medicinal Chemistry, 2025).
pIC50: −log10 of the molar value.

What was measured:
[1] = molecular target: T1, human TREK-1 (hTREK-1) (Homo sapiens, UniProt O95069); test: TREK-1 thallium flux assay (CHO-K1 cells stably expressing hTREK-1); assay type: cell-based; conditions: human TREK-1, thallium flux; read-out: h TREK-1 Tl+ IC50
T1 construct: expressed in transfected cells
T1 sequence (O95069 1-426): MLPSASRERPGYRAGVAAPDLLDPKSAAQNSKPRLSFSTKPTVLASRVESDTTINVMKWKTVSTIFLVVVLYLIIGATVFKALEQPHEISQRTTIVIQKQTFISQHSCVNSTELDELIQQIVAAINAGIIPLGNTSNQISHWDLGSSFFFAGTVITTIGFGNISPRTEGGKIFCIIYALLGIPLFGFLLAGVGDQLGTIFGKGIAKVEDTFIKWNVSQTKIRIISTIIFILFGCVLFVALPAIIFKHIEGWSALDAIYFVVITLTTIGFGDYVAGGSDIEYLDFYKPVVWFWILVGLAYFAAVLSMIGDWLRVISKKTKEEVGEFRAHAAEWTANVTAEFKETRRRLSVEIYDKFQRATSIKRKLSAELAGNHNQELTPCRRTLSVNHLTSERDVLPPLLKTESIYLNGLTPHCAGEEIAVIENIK
Procedure: Procedures for Biological Experiments
TREK-1 Thallium flux assay
CHO-K1 cells stably expressing hTREK-1 were cultured in T225 flask. The cells were loaded with FluxOR dye and plated in 384 well plate at the experiment day. Test compounds or control compound (tert-butyl (3-((4-(benzyloxy)-2-methylphenyl)carbamoyl)-4-chlorophenyl)carbamate) or 0.3% DMSO (vehicle control) were added directly to the cell plates and incubated for 10 min, and then treated with thallium stimulus buffer to initiate thallium flux.
To measure the efficacy and potency of test compounds, the change in fluorescence intensity (ΔRatio) and % inhibition were calculated using the following equations:
ΔRatio = (fluorescence intensity at 25 seconds after thallium addition)/(average of fluorescent intensity before thallium addition)
(§1) 0.3% DMSO - ΔRatio of 10 μM control compound)}x100
(§2) % inhibition vs compound concentration were plotted in XLfit and calculated IC50.
CHO-K1 cells stably expressing human TREK-1 (hTREK-1) were cultured in T225 flask.
The cells were loaded with FluxOR dye and plated in 384 well plate at the experiment day. Test compounds or control compound (tert-butyl (3-((4-(benzyloxy)-2-methylphenyl)carbamoyl)-4-chlorophenyl)carbamate) or 0.3% DMSO (vehicle control) which were prepared on separate plates were added to the cell plates and incubated for 10 min, and then the cells with test compounds or […]
chlorophenyl)carbamate) or 0.3% DMSO (vehicle control) were treated with thallium stimulus buffer to initiate thallium flux. To measure the efficacy and potency of test compounds, the change in fluorescence intensity (ΔRatio) and % inhibition were calculated using the following equations: […]

[2] = ChromatoLogD; assay type: physicochemical
[3] = molecular target: T2, human TREK-2 (hTREK-2) (Homo sapiens, UniProt P57789); test: TREK-2 thallium flux assay (HEK293 cells stably expressing hTREK-2); assay type: cell-based; conditions: human TREK-2, thallium flux; read-out: h TREK-2 Tl+ IC50
T2 construct: expressed in transfected cells
T2 sequence (P57789 1-538): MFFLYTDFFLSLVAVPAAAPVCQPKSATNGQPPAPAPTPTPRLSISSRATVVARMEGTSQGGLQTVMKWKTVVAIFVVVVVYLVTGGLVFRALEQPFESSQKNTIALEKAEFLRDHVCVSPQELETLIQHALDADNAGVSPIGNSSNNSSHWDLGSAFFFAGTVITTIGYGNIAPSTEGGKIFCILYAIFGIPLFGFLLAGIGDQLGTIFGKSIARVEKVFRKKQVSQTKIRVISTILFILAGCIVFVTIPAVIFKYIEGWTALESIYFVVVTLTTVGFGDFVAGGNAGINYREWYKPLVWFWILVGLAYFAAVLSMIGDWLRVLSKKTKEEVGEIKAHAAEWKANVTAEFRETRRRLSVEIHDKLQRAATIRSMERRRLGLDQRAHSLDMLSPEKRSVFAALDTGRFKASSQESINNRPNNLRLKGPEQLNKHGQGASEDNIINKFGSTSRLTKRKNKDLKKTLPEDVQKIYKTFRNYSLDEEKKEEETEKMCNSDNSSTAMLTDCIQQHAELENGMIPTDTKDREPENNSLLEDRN
Procedure: as §1, §2
TREK-2 Thallium flux assay
HEK293 cells stably expressing human TREK-2 (hTREK-2) are plated in 384-well plates, cultured overnight, loaded with Thallos dye the following day. Test compounds or control compound (tert-butyl (3-((4-(benzyloxy)-2-methylphenyl)carbamoyl)-4-chlorophenyl)carbamate) or 0.3% DMSO (vehicle control) which are prepared on separate plates are added to the cell plates and incubated for 10 min, and then the cells were treated with thallium stimulus buffer to initiate […]
To measure the efficacy and potency of test compounds, the change in fluorescence intensity (ΔRatio) and % inhibition are calculated using the following equations: […]

Row | Compound | pIC50 [1] | chromatographic logD [2] | pIC50 [3]
1 | Cc1cc(C#Cc2ccccc2)cnc1NC(=O)c1c(Cl)cnn1CC1COCCO1 (stereo not drawn) [Compound 8, 1-((1,4-Dioxan-2-yl)methyl)-4-chloro-N-(3-methyl-5-(phenylethynyl)pyridin-2-yl)-1H-pyrazole-5-carboxamide] | 6.17 | – | –
2 | Cc1cc(C#Cc2ccccc2)cnc1NC(=O)c1cc(NC(=O)OC(C)(C)C)ccc1Cl [Compound 13e] | 6.85 | 5.15 | –
3 | Cc1cc(C#Cc2ccccc2)cnc1NC(=O)c1c(Cl)cnn1CC1CCOCC1 [Compound 14b, 4-Chloro-N-(3-methyl-5-(phenylethynyl)pyridin-2-yl)-1-((tetrahydro-2H-pyran-4-yl)methyl)-1H-pyrazole-5-carboxamide] | 6.70 | – | –
4 | CC(=O)N1CCC(n2ncc(Cl)c2C(=O)Nc2ncc(C#Cc3ccccc3)cc2C)C(F)C1 (stereo not drawn) [Compound 16a, 1-(1-Acetyl-3-fluoropiperidin-4-yl)-4-chloro-N-(3-methyl-5-(phenylethynyl)pyridin-2-yl)-1H-pyrazole-5-carboxamide] | 7.01 | – | 6.55
5 | CC(=O)N1CC[C@@H](n2ncc(Cl)c2C(=O)Nc2ncc(C#Cc3ccccc3)cc2C)[C@@H](F)C1 [Compound 16c, 1-((3S,4R)-1-Acetyl-3-fluoropiperidin-4-yl)-4-chloro-N-(3-methyl-5-(phenylethynyl)pyridin-2-yl)-1H-pyrazole-5-carboxamide] | 6.80 | – | 6.28
6 | CC(=O)N1CC[C@H](n2ncc(Cl)c2C(=O)Nc2ncc(C#Cc3ccccc3)cc2C)[C@H](F)C1 [Compound 16d, 1-((3R,4S)-1-Acetyl-3-fluoropiperidin-4-yl)-4-chloro-N-(3-methyl-5-(phenylethynyl)pyridin-2-yl)-1H-pyrazole-5-carboxamide] | – | – | 6.28
7 | CC(=O)N1CC[C@H](n2ncc(Cl)c2C(=O)Nc2ncc(C#Cc3ccccc3)cc2F)[C@H](F)C1 [Compound 16e, 1-((3R,4S)-1-Acetyl-3-fluoropiperidin-4-yl)-4-chloro-N-(3-fluoro-5-(phenylethynyl)pyridin-2-yl)-1H-pyrazole-5-carboxamide] | 7.15 | – | 6.48
8 | CC(=O)N1CC[C@H](n2ncc(Cl)c2C(=O)Nc2ncc(C#Cc3ccccc3)cc2F)[C@@H](F)C1 [Compound 16f, 1-((3S,4S)-1-Acetyl-3-fluoropiperidin-4-yl)-4-chloro-N-(3-fluoro-5-(phenylethynyl)pyridin-2-yl)-1H-pyrazole-5-carboxamide] | – | – | 6.33
